Measured values taken from patent US12458688B2, “Epitopes” (Scancell Limited, priority 2018, dated 2025).
Where no end group is shown, it is not given here. [ ]: non-standard residue; d: D form. hCit = NC(=O)NCCCC[C@H](N)C(=O)O

Assays:
Assay type in all cases: in vivo, mouse
HLA-HHDII/DP4 mice = experiment: Ex vivo IFNγ ELISpot after peptide immunisation, HHDII/DP4 mice; details: for IFNγ ELISpot response: 3 immunisations with CpG/MPLA, day 21
Description: (§1) C57BL/6 mice (Charles River, UK), HLA-DR4 mice (Model #4149, Taconic, USA), HLA-A2/DR1 (HHDII/DR1, Pasteur Institute), HLA-A2.1+/+HLA-DP4+/+hCD4+/+ (HLA-HHDII/DP4) transgenic mice (EM: 02221, European Mouse Mutant Archive) described in patent WO2013/017545 A1 (EMMA repository, France) were used, aged between 8 and 12 weeks. Peptides were dissolved in PBS to 1 mg/ml and then emulsified (a series of dilutions) with CpG ODN 1826 and MPLA 6 μg/mouse of each (Invivogen, UK). Peptides (25 μg/mouse) were injected subcutaneously at the base of the tail. Mice were immunised at days 1, 7 and 14 for peptide immunisation. Spleens were removed for analysis at day 21 unless stated otherwise.
(§2) ELISpot assays were performed using murine IFNγ, IL-17 and IL-10 capture and detection reagents according to the manufacturer's instructions (Mabtech, Sweden). In brief, anti-IFNγ, IL-17 and IL-10 specific antibodies were coated onto wells of 96-well Immobilin-P plate. Synthetic peptides (at various concentrations) and 5×10^5 per well splenocytes were added to wells of the plate in quadruplicate Tumour target cells were added where relevant at 5×10^4/well in triplicate and plates incubated for 40 hrs at 37° C. After incubation, captured IFNγ, IL-10 and IL-17 were detected by biotinylated anti-IFNγ, IL-10 and IL-17 antibodies and developed with a streptavidin alkaline phosphatase and chromogenic substrate. Lipopolysaccharide (LPS; 5 μg/ml) was used as a positive control. For MHC blocking studies, anti-CD4 blocking antibody (GK1.5) or anti-CD4 blocking antibody (RPA-T4) for HHDII/DP4 mice which express human CD4 and anti-CD8 blocking antibody (2.43) from Bioxcell were used at 20 μg/ml. Spots were analysed and counted using an automated plate reader (Cellular Technologies Ltd).
Screening was performed to identify potential homocitrullinated ALDOA epitopes in transgenic HHDII/DP4 and HHDII/DR1 mice. Mice were immunised with pools of human homocitrullinated peptides. […] Each pool was administered as three immunisations containing 20 μg of each peptide and CpG/MPLA as an adjuvant. After 21 days the mice were culled and the immune responses to each peptide within the immunising pool were assessed by ex vivo ELISpot in HHDII/DP4 (FIG. 4b) and HHDII/DR1 mice (FIG. 4d). […] Our predictions therefore identified 3/5 peptides which could induce a T cell response. […] Of the responding peptides ALDOA 74-93 Hcit and 140-157 Hcit peptides are homologous in human and mice therefore these two peptides were selected for further investigation. Minimal IL-10 (FIG. 6b) or IL-17 (FIG. 6c) responses were seen to Aldolase peptides in HHDII/DP4 mice.
Using this combination of predictions, 5 CyK8 peptides containing homocitrulline were synthesised (Table 4). Screening was performed to identify potential homocitrullinated Cyk8 epitopes in transgenic HHDII/DP4. Mice were immunised with pools of human homocitrullinated peptides. […] Each pool was administered as three immunisations containing 20 μg of each peptide and CpG/MPLA as an adjuvant. After 21 days the mice were culled and the immune responses to each peptide within the immunising pool were assessed by ex vivo ELISpot in HHDII/DP4 (FIG. 10a). […] The responses to CyK8 101-120 Hcit, 112-131 Hcit, 182-201 Hcit, 371-388 Hcit and 381-399 Hcit immunisation were characterised for cross reactivity to the wt peptide sequence. […] Thus a key characteristic of immunogenic peptides is they express homocitrulline. All of these peptides (100%) were immunogenic. Thus a high predicted HLA-DP4 binding affinity (<30), the presence of homocitrulline residues in the core region, the peptide being amphipathic in nature with a predominantely spiral conformational structure upon 3D modelling, and the existence of homology between the mouse and human sequences defines immunogenicity. When this model was applied retrospectively to include the vimentin and ALDOA peptides 8/9 (88%) were correctly predicted. […]

HLA-DR4 mice = experiment: Ex vivo IFNγ ELISpot after peptide immunisation, HLA-DR4 mice; details: for IFNγ ELISpot response: 3 immunisations with CpG/MPLA, day 21
Description: as §1, §2
(§3) Screening was performed to identify potential homocitrullinated vimentin epitopes in mice. Mice were immunised with pools of homocitrullinated peptides. […] Each pool was administered as three immunisations containing 20 μg of each peptide and CpG/MPLA as an adjuvant on day 1, 8 and 15. On day 21 the mice were culled and the immune responses to each peptide within the immunising pool were assessed by ex vivo ELISpot. Given that different mouse strains have different MHC repertoires a number of strains were used for screening. Peptide responses were assessed in transgenic strains expressing human DR4 or HHDII/DR1 in a C57BL/6 background (see methods).

HLA-HHDII/DR1 mice = experiment: Ex vivo IFNγ ELISpot after peptide immunisation, HHDII/DR1 mice; details: for IFNγ ELISpot response: 3 immunisations with CpG/MPLA, day 21
Description: as §1, §2
as §3, with “methods). […]” for “methods).”
The five selected homocitrullinated Cyk8 peptides were also screened in HHDII/DR1 transgenic mice. […] Response to Cyk8 112Hcit peptide in the HHDII/DR1 mice was lost in the presence of CD8 blocking antibody but less effect of the CD4 blocking antibody was seen (FIG. 12b). […] Responses to homocitrullinated Cyk8 peptides show both CD4 and CD8 mediated responses.

B16F1 HHDII/DR1 tumours = experiment: Tumour therapy, B16F1 HHDII/DR1 tumour in HHDII/DR1 mice; details: peptide with CpG/MPLA days 4, 11, 18
Excerpt: To determine if the epitopes that stimulate T cell responses are presented on MHC-II within the tumour environment, our homocitrullinated peptides were checked for tumour therapy in B16 tumour models. Mice were implanted with tumour cells on day 1 and then immunised with peptides and CpG/MPLA on days 4, 11 and 18.
HHDII/DR1 (FIG. 19a) or DR4 (FIG. 19b) transgenic mice were challenged with B16F1 HHDII/DR1 or B16F1 DR4 tumours respectively prior to immunisation with vimentin 116-135Hcit peptide and tumour growth and survival were monitored.
HHDII/DR1 mice were implanted with B16HHDII/DR1 tumour cells on day 1 and then immunised with Cyk8 371Hcit, 112hcit or both peptides and CpG/MPLA on days 4, 11 and 18.

HACTQ-hcit-FSH(N)EEIAMATVTA (HACTQ[hCit]FSHNEEIAMATVTA; not fully specified; printed as HACTQ-hcit-FSH(N)EEIAMATVTA) [Aldolase A 238-256 Hcit]
IFNγ ELISpot response (HLA-HHDII/DP4 mice): stimulation of IFNγ responses

hcit-DGADFA-hcit-WRCVL-hcit-IGEH ([hCit]DGADFA[hCit]WRCVL[hCit]IGEH) [Aldolase A 140-157 Hcit]
IFNγ ELISpot response (HLA-DR4 mice): No responses were seen | cross reactivity of Hcit response to wt peptide (HLA-HHDII/DR1 mice): significantly higher | IFNγ ELISpot response (HLA-HHDII/DR1 mice): stimulated responses | IFNγ response in presence of CD4 blocking antibody (HLA-HHDII/DP4 mice): significantly reduced | cross reactivity of Hcit response to wt peptide (HLA-HHDII/DP4 mice): limited responses | IFNγ ELISpot response (HLA-HHDII/DP4 mice): stimulation of IFNγ responses | anti-tumour response / survival vs control (B16F1 HHDII/DR1 tumours): significant increase in survival

LEQQN-hcit-MLET-hcit-WSLLQQQ-hcit-T (LEQQN[hCit]MLET[hCit]WSLLQQQ[hCit]T) [Cyk8 112-131 Hcit]
IFNγ response in presence of CD4 blocking antibody (HLA-HHDII/DR1 mice): less effect | IFNγ response in presence of CD8 blocking antibody (HLA-HHDII/DR1 mice): lost | cross reactivity of Hcit response to wt peptide (HLA-HHDII/DR1 mice): minimal cross reactivity | IFNγ ELISpot response (HLA-HHDII/DR1 mice): Significant responses | IFNγ response in presence of CD4 blocking antibody (HLA-HHDII/DP4 mice): not with CD4 blocking antibody | IFNγ response in presence of CD8 blocking antibody (HLA-HHDII/DP4 mice): inhibited | cross reactivity of Hcit response to wt peptide (HLA-HHDII/DP4 mice): significantly higher | IFNγ ELISpot response (HLA-HHDII/DP4 mice): stimulation of IFNγ responses | anti-tumour response / survival vs control (B16F1 HHDII/DR1 tumours): Significant prevention of tumour growth

NYID-Hcit-VRFLEQQN-Hcit-ILLAEL (NYID[hCit]VRFLEQQN[hCit]ILLAEL) [Vimentin 116-135 Hcit]
IFNγ response in presence of CD4 blocking antibody (HLA-DR4 mice): significantly decreased | IFNγ response in presence of CD8 blocking antibody (HLA-DR4 mice): not in the presence of the CD8 blocking antibody | cross reactivity of Hcit response to wt peptide (HLA-DR4 mice): no cross reactivity | IFNγ ELISpot response (HLA-DR4 mice): significant response | IFNγ response in presence of CD4 blocking antibody (HLA-HHDII/DR1 mice): significantly decreased | IFNγ response in presence of CD8 blocking antibody (HLA-HHDII/DR1 mice): not in the presence of the CD8 blocking antibody | cross reactivity of Hcit response to wt peptide (HLA-HHDII/DR1 mice): no cross reactivity | IFNγ ELISpot response (HLA-HHDII/DR1 mice): significant response | IFNγ ELISpot response (HLA-HHDII/DP4 mice): no IFNγ responses were observed | survival (B16F1 HHDII/DR1 tumours): 50%

hcit-LALDIEIATYR-hcit-LLEGEE ([hCit]LALDIEIATYR[hCit]LLEGEE) [Cyk8 381-399 Hcit]
cross reactivity of Hcit response to wt peptide (HLA-HHDII/DP4 mice): significantly higher | IFNγ ELISpot response (HLA-HHDII/DP4 mice): stimulation of IFNγ responses

EIN-hcit-RTEMENEFVLI-hcit-hcit-DVDE (EIN[hCit]RTEMENEFVLI[hCit][hCit]DVDE) [Cyk8 182-202 Hcit]
IFNγ ELISpot response (HLA-HHDII/DP4 mice): stimulation of IFNγ responses

IGGVILFHETLYQ-hcit-ADDGRP (IGGVILFHETLYQ[hCit]ADDGRP) [Aldolase A 74-93 Hcit]
IFNγ ELISpot response (HLA-DR4 mice): No responses were seen | IFNγ response in presence of CD4 blocking antibody (HLA-HHDII/DP4 mice): significantly reduced | cross reactivity of Hcit response to wt peptide (HLA-HHDII/DP4 mice): limited responses | IFNγ ELISpot response (HLA-HHDII/DP4 mice): stimulation of IFNγ responses

LREYQELMNV-hcit-LALDIEI (LREYQELMNV[hCit]LALDIEI) [Cyk8 371-388 Hcit]
IFNγ response in presence of CD4 blocking antibody (HLA-HHDII/DR1 mice): lost | IFNγ response in presence of CD8 blocking antibody (HLA-HHDII/DR1 mice): not with the CD8 blocking antibody | cross reactivity of Hcit response to wt peptide (HLA-HHDII/DR1 mice): minimal cross reactivity | IFNγ ELISpot response (HLA-HHDII/DR1 mice): Significant responses | IFNγ response in presence of CD4 blocking antibody (HLA-HHDII/DP4 mice): inhibited | cross reactivity of Hcit response to wt peptide (HLA-HHDII/DP4 mice): significantly higher | anti-tumour response / survival vs control (B16F1 HHDII/DR1 tumours): Significant prevention of tumour growth

KFASFID-Hcit-VRFLEQQN-Hcit-MLE (KFASFID[hCit]VRFLEQQN[hCit]MLE) [Cyk8 101-120 Hcit]
IFNγ response in presence of CD4 blocking antibody (HLA-HHDII/DP4 mice): inhibited | IFNγ ELISpot response (HLA-HHDII/DP4 mice): stimulation of IFNγ responses
